Laboratory results from PMC5900554, “Fragment-Based Approach to Targeting Inosine-5′-monophosphate Dehydrogenase (IMPDH) from Mycobacterium tuberculosis” (Journal of Medicinal Chemistry, 2018).
Read-outs that look alike come from different tables or passages of the source.

Columns and labels:
Mth IMPDH ΔCBS [1] = biological target: T1, Mth IMPDH ΔCBS (Mycolicibacterium thermoresistibile, UniProt G7CNL4, R236G); assay type: biochemical, Mycobacterium thermoresistible; conditions: SAR statement in text
full-length Mtb IMPDH = full-length Mtb IMPDH (Mycobacterium tuberculosis, UniProt P9WKI7); assay: Inhibition constants toward full-length Mtb IMPDH; assay type: biochemical
Experimental: (§1) The initial velocities at various inhibitor concentrations were determined based on the slope in the linear part of each reaction containing the inhibitor and the uninhibited reaction. To determine the inhibition constant (Ki values), the initial rate data versus substrate concentration at different inhibitor concentrations were fit using Prism software (GraphPad) to equations for uncompetitive or mixed inhibition. For each inhibitor concentration, the reciprocal of enzyme reaction velocity versus the reciprocal of the substrate concentration was plotted in a Lineweaver–Burk plot to determine the pattern of inhibition.

Mth IMPDH ΔCBS [2] = biological target: T1, Mth IMPDH ΔCBS; assay: Inhibition constants (Ki) and mode of inhibition against Mth IMPDH ΔCBS with respect to IMP and NAD+; assay type: biochemical, Mycobacterium thermoresistible; design: key to Pattern of inhibition with respect to IMP / Pattern of inhibition with respect to NAD: UC: Uncompetitive inhibition; conditions: for Pattern of inhibition with respect to IMP / Pattern of inhibition with respect to NAD: UC = uncompetitive; for Pattern of inhibition with respect to IMP / IMP αKi: with respect to IMP; for IMP αKi: fixed saturating NAD+ ([…]); for Pattern of inhibition with respect to NAD / NAD αKi: with respect to NAD+; for NAD αKi: constant saturating IMP (1 mM)
Experimental: The inhibition constant [Ki] with respect to both substrates IMP and NAD^+ was determined by assaying various concentrations of each inhibitor with five different concentrations of substrate and a fixed saturating concentration of the cosubstrate.
as §1

[3] = IMP as the substrate, read-out: Ki with IMP as the substrate
[4] = NAD as the substrate, read-out: Ki with NAD as the substrate

Row | SMILES | Mth IMPDH ΔCBS inhibitory activity (in words) (Mth IMPDH ΔCBS [1]) | Ki (full-length Mtb IMPDH; [3]) | Ki (full-length Mtb IMPDH; [4]) | Pattern of inhibition with respect to IMP (Mth IMPDH ΔCBS [2]) | IMP αKi (Mth IMPDH ΔCBS [2]) | Pattern of inhibition with respect to NAD (Mth IMPDH ΔCBS [2]) | NAD αKi (Mth IMPDH ΔCBS [2])
1 | CC(C)NC(=O)CSc1nc(-c2ccccc2)c[nH]1 [Compound 26, N-Isopropyl-2-((4-phenyl-1H-imidazol-2-yl)thio)acetamide] | complete loss of activity | – | – | – | – | – | –
2 | O=C(O)CSc1nc(-c2ccc(Br)cc2)c[nH]1 [Compound 27, 2-((4-(4-Bromophenyl)-1H-imidazol-2-yl)thio)acetic Acid] | complete loss in activity | – | – | – | – | – | –
3 | O=C(O)CSc1nc(-c2ccccc2)c[nH]1 [Compound 28, 2-((4-Phenyl-1H-imidazol-2-yl)thio)acetic Acid] | complete loss in activity | – | – | – | – | – | –
4 | CC(Oc1ccc(-c2cn(C)cn2)cc1)C(=O)Nc1nc(-c2ccc(Br)cc2)c[nH]1 (centres unmarked) [Compound 31, N-(4-(4-Bromophenyl)-1H-imidazol-2-yl)-2-(4-(1-methyl-1H-imidazol-4-yl)phenoxy)propanamide] | – | 0.61 ± 0.05 µM | 0.39 ± 0.02 µM | uncompetitive | 0.30 ± 0.02 µM | uncompetitive | 0.20 ± 0.01 µM
5 | Oc1ccc2ccc(O)cc2c1 [Compound 11] | – | – | – | uncompetitive and UC | 361 ± 53 µM | UC | 310 ± 30 µM
6 | COc1ccc(OC(C)C(=O)Nc2ccc(I)cc2)cc1 (centres unmarked) [Compound 1, reference compound] | – | – | – | uncompetitive and UC | – | uncompetitive and UC | 0.55 ± 0.02 µM
7 | Cc1ccc(-c2nc(C(=O)O)cs2)cc1 [Compound 16] | – | – | – | Mixed | – | UC | 525 ± 64 µM
8 | O=C(O)c1cc2sccc2s1 [Compound 14] | – | – | – | Mixed | 238 ± 6 µM | UC | 262 ± 39 µM
9 | CC(=O)Nc1cc(C)ccc1O [Compound 18] | – | – | – | uncompetitive and UC | 554 ± 70 µM | UC | 452 ± 26 µM
10 | CC1(C)Cc2cccc(CO)c2O1 [Compound 19] | – | – | – | Mixed | 126 ± 34 µM | UC | 355 ± 47 µM
11 | Brc1ccc(-c2c[nH]cn2)cc1 [Compound 2] | – | 572 ± 14 µM | 534 ± 18 µM | uncompetitive and UC | 609 ± 3 µM | uncompetitive and UC | 512 ± 23 µM
12 | CC(Oc1ccc(-c2cn(C)cn2)cc1)C(=O)Nc1ccccc1 (centres unmarked) [Compound 34, 2-(4-(1-Methyl-1H-imidazol-4-yl)phenoxy)-N-phenylpropanamide] | complete loss of activity | – | – | – | – | – | –
